Assay results reported in patent publication US20160022751A1, “NOVEL COMPOSITION FOR TREATING ALZHEIMER'S DISEASE AND IMPROVING COGNITIVE FUNCTION OF ALZHEIMER'S PATIENTS” (GANGNEUNG-WONJU NATIONAL UNIVERSITY INDUSTRY ACADEMY …, priority 2014, published 2016).

Key:
Aβ42 = experiment: Morris water maze test in Aβ42-infused animals; format: in vivo; conditions: Aβ42 rats administered Rg3 (FIG. 25)
Description: Male BALB/c mice (10 weeks old) were purchased from Samtaco (Korea), and were adapted to laboratory conditions (temperature: 20±2° C., relative humidity: 50%, light/dark cycle: 12 h) for 1 week. Five-week-old male Sprague-Dawley rats were obtained from Daehan-Biolink (Korea) for learning and memory testing. The animals (n=5/group) were maintained at a constant temperature (23±2° C.), relative humidity, 55±10%, and 12-h light/dark cycle. The animals were fed a standard rodent chow and purified water ad libitum. Lyophilized Aβ42 (0.5 mg, Bachem Torrance, USA) was resuspended in PBS (pH 7.4) by shaking for 7 days at room temperature to prepare the fibrillar-aggregated Aβ42 (fAβ42). At 10 weeks of age, mice were anesthetized, and 1 μl fAβ42 (350 μM stock concentration) was stereotaxically injected unilaterally into the parietal cortex (anterior 1.7 mm, lateral 1 mm, and ventral 1 mm to the bregma above the hippocampus within 1 min) (Mohajeri et al., J. Biol. Chem., 277: 35460-35465, 2002)
The present inventor performed learning and memory tests using rats in order to investigate whether Rg3 can ameliorate symptoms of Alzheimer's model animals in deed. […] The latency time of stay in the light room from lights-on was recorded following an electric shock (1 mA for 2 s) in the dark compartment. […] The mean time spent to escape onto the platform was recorded.

NEP = NEP protein expression in HMO6 cells (western blot, immunocytochemistry); format: cell-based, human; conditions: 5 μg/ml Rg3, 24 h (FIG. 19)
Description: FIG. 19 represents an images showing a result of western blot analysis of the expression of NEP (neprilysin) and IDE (insulin-degrading enzyme) in HMO6 cells (A); graphs representing the above result quantitatively (B and C), and fluorescence microscopic images representing immunocytochemical analyses (D and E). The expression of NEP and IDE in HMO6 cells was analyzed by western blot analysis and immunocytochemistry after treating Aβ42 (5 μM) or Rg3 (2.5 or 5 μg/ml) for 24 h to HMO6 cells in serum-free DMEM medium plated on 60 mm cell culture plates or chamber slides. The results are shown as mean±SD. * P<0.05, ** P<0.01, *** P<0.001.
HMO6 cells were lysed in 1% RIPA buffer containing protease and phosphatase inhibitors (Roche, Mannheim, Germany) and whole-cell lysates were separated on 10% sodium dodecyl sulfate-polyacrylamide gel electrophoresis. After electrophoresis, the proteins were transferred to polyvinylidene fluoride membranes, and the membranes were blocked with 5% skim milk in Tris-buffered saline solution containing 0.1% Tween-20. The membranes were then immunoblotted with primary antibodies, anti-phospho-p38, anti-p38, anti-phospho-ERK, anti-ERK, and anti-f3-actin (Santa Cruz Biotechnology, USA), followed by incubation with horseradish peroxidase-conjugated anti-rabbit or anti-mouse secondary antibodies (Stressgen, USA). […]

SRA = experiment: In vivo SRA protein expression in brain tissues (western blot); conditions: mice administrated with Rg3 (FIG. 24B)
Excerpt: HMO6 cells were lysed in 1% RIPA buffer containing protease and phosphatase inhibitors (Roche, Mannheim, Germany) and whole-cell lysates were separated on 10% sodium dodecyl sulfate-polyacrylamide gel electrophoresis. After electrophoresis, the proteins were transferred to polyvinylidene fluoride membranes, and the membranes were blocked with 5% skim milk in Tris-buffered saline solution containing 0.1% Tween-20. The membranes were then immunoblotted with primary antibodies, anti-phospho-p38, anti-p38, anti-phospho-ERK, anti-ERK, and anti-f3-actin (Santa Cruz Biotechnology, USA), followed by incubation with horseradish peroxidase-conjugated anti-rabbit or anti-mouse secondary antibodies (Stressgen, USA). Blots were developed using an enhanced chemiluminescent solution (Thermo, USA).
The present inventor investigated whether ginsenoside Rg3 translocated to brain tissues contributes to the uptake and degradation of Aβ42 in order to determine whether in vitro experimental results described in the Example 5 can be applied to in vivo condition in the same manner. Specifically, the expression level of SRA and SRB gene within brain tissues of mice administrated with Rg3 was determined using the RT-PCR analysis described in the Example 5-4 (FIG. 24A) and the western blot analysis described in the Example 5-6 (FIG. 24B). […]

CC(C)=CCC[C@](C)(O)[C@H]1CC[C@]2(C)[C@@H]1[C@H](O)C[C@@H]1[C@@]3(C)CC[C@H](O[C@@H]4O[C@H](CO)[C@@H](O)[C@H](O)[C@H]4O[C@@H]4O[C@H](CO)[C@@H](O)[C@H](O)[C@H]4O)C(C)(C)[C@@H]3CC[C@]12C [ginsenoside Rg3]
learning and memory functions, Morris water-maze (Aβ42): maintained learning and memory functions at 4-5 weeks | NEP expression in cells (NEP): distinctively expressed | expression of SRA protein in brain tissues (SRA): increased
